According to patent US6579541B2, “Oxidative fluorinator compounds as antimicrobials” (priority 2000, dated 2003):

Tests used:
coliform = experiment: AOAC culture test of contaminated water, coliform counts; assay type: cell-based; conditions: about 2 PPM XeF2 with about 20 PPM KPS, pH about 7, 37.4 cfu/mL
Procedure: (§1) These and other aspects of the present invention may be more fully understood with reference to the following examples, which are merely illustrative of the preferred embodiments of the present invention, and are not to be construed as limiting the invention, the scope of which is defined by the appended claims. Unless otherwise indicated, antimicrobial evaluations of the various fluorinator compounds tested were performed versus control samples in cultures in accordance with the protocol as set forth in AOAC (15th) 1990:965:13 at colony densities indicated in the examples.
Contaminated water was prepared and measured to have AOAC coliform counts averaging 37.4 colony forming units per milliliter (cfu/mL). The water was treated by first adding crystal potassium monopersulfate (KPS) stabilizer, commercially available from E.I. DuPont de Nemours & Co. Corp. as OXONE®, and xenon difluoride (XeF2). The concentration in solution of the KPS and XeF2 was about 20 PPM and about 2 PPM respectively, and the pH of the treated solution was about 7.

salmonella = experiment: AOAC culture test of aqueous solutions with salmonella contamination; assay type: cell-based; conditions: ten minutes exposure
Procedure: Unless otherwise indicated, antimicrobial evaluations of the various fluorinator compounds tested were performed versus control samples in cultures in accordance with the protocol as set forth in AOAC (15th) 1990:965:13 at colony densities indicated in the examples.
Aqueous solutions were prepared having a salmonella contamination at a cell density of about 500,000 cfu/mL. Two solutions of XeF2 were prepared: one as a 1% solution in 85% phosphoric acid stabilizer, and a second solution containing no stabilizer. The materials were cultured versus controls at concentrations of about 2 ppm and about 4 ppm XeF2 and at a pH of about 9.

E. Coli ATCC 81377 = experiment: Hand soap base culture test; assay type: cell-based; conditions: about 5 ppm XeF2 in hand soap base, about 320,000 cfu/mL, 30 seconds exposure
Procedure: as §1
(§2) A hand soap base was prepared comprising an aqueous mixture of coconut fatty acid amide and sodium lauryl sulfate surfactants. XeF2 was incorporated into the hand soap base at a level of about 5 ppm and four separate cultures containing various microbes at a level of about 320,000 cfu/mL were evaluated.

[1] = system: Enterococcus Faecalis (Vancomycin resistance); experiment: Hand soap base culture test; assay type: cell-based; conditions: about 5 ppm XeF2 in hand soap base, about 320,000 cfu/mL, 30 seconds exposure
Procedure: as §1, §2

Salmonella ATC 14 = experiment: Hand soap base culture test; assay type: cell-based; conditions: about 5 ppm XeF2 in hand soap base, about 320,000 cfu/mL, 30 seconds exposure
Procedure: as §1, §2

[2] = system: Staph Aureus (Methicillin resistance); experiment: Hand soap base culture test; assay type: cell-based; conditions: about 5 ppm XeF2 in hand soap base, about 320,000 cfu/mL, 30 seconds exposure
Procedure: as §1, §2

bacterial colonies = experiment: Industrial cooling tower water, standard immersion test kit; conditions: about 1 ppm CoF3 with about 10 ppm KPS, about 1,000 gallons of water, after 24 hours
Description: An industrial cooling tower containing about 1,000 gallons of water tested positive for a high bacterial colony count using a standard immersion test kit.

SMILES	coliform inhibited (coliform; 5 minutes exposure)	coliform inhibited (coliform; 10 minutes exposure)	inhibition (salmonella; about 2 ppm XeF2, pH about 9, about 500,000 cfu/mL)	inhibition (salmonella; about 4 ppm XeF2, pH about 9, about 500,000 cfu/mL)	Inhibition (%) (E. Coli ATCC 81377)	Inhibition (%) [1] [%]	Inhibition (%) (Salmonella ATC 14)	Inhibition (%) [2] [%]	immersion kit test result on cooling tower water (bacterial colonies)
F[Xe]F [XeF2, xenon difluoride]	about 73%	about 77%	about 13.2%	about 96.4%	99.9	99.9	99.9	99.5	
[F][Co]([F])[F] [CoF3, cobalt trifluoride]									complete destruction of bacterial colonies
